Results taken from patent US10703821B2, “Method for stimulating or enhancing proliferation of cells by activating the mucin 1 (MUC1) receptor” (MINERVA BIOTECHNOLOGIES CORPORATION, priority 2005, dated 2020).

System: PSMGFR region of MUC1
Assay: western blot of ERK2 phosphorylation, competition with anti-PSMGFR
Assay type: cell-based
Source text: FIG. 6 is a western blot of a competition experiment in which small molecules that bind to the PSMGFR region of MUC1 compete with anti-PSMGFR for binding to the site. […] The chemical formula for the competitor compound MN 9 referred to in this figure is […]

O=C(c1ccc2ccccc2c1)N1CCc2c([nH]c3ccccc23)C1c1ccc(C(F)(F)F)cc1 (centres unmarked) [MN 9]
binding of anti-PSMGFR to the PSMGFR site in competition (in the presence of competitor small molecule): the antibody does not bind | ERK2 phosphorylation (in the presence of competitor small molecule and anti-PSMGFR): ERK2 phosphorylation is inhibited
